Assays:
H-EMC-SS cells [1] = test: Suppression of cell proliferation of chondrosarcoma cell line H-EMC-SS (CCK-8); assay type: cell-based, human; conditions: drug at various concentrations
From the text: The H-EMC-SS cells were obtained from the Riken BioResource Center.
The H-EMC-SS cells were obtained from the Riken BioResource Center. As the SW1353 cells, those obtained from ATCC were used.

giant cell tumor of bone = test: Curative effect of zaltoprofen (Soleton Tablet) on patients with giant cell tumor of bone; assay type: in vivo, human
Experimental: Soleton Tablet 80 (generic name: zaltoprofen, 80 mg, Nippon Chemiphar) was administered to a patient with giant cell tumor of bone (GCTB), patient with giant cell tumor of tendon sheath (GCTT), or patient with pigmented villonodular synovitis (PVNS) at a dose of 3 tablets per day (one tablet was administered in the morning, at noon, and in the evening), and the tumor size was evaluated by MRI every several months.
Soleton Tablet 80 (generic name: zaltoprofen, 80 mg, Nippon Chemiphar) was administered to patients with giant cell tumor of bone at a dose of 3 tablets per day (one tablet was administered in the morning, at noon, and in the evening). Four weeks after the start of the administration, the tumor size was evaluated by imaging based on simple Roentgen contrast method, X-ray CT, and MRI (nuclear magnetic resonance imaging). Then, the tumors were excised from patients for whom surgical operation was possible, administration of zaltoprofen was continued at a dose of 240 mg per day (one 80 mg tablet was administered at the time of breakfast, lunch, and supper), and the tumor size was evaluated by imaging based on simple Roentgen contrast method, X-ray CT, and MRI (nuclear magnetic resonance imaging) every 16 weeks. Also for patients for whom surgical operation was difficult, administration of zaltoprofen was continued at a dose of 240 mg per day (one 80 mg tablet was administered at the time of breakfast, lunch, and supper), and the tumor size was evaluated by imaging based on simple Roentgen contrast method, X-ray CT, and MRI (nuclear magnetic resonance imaging) every 8 weeks.

[2] = system: PPARγ expression in giant cell tumor of bone (GCTB); conditions: patient who had taken zaltoprofen for four weeks at 240 mg per day; inventors' earlier reports; cited from earlier work
OUMS-27 cells = test: Proliferation of OUMS-27 cells cultured beforehand with or without GW9662; assay type: cell-based, human; conditions: GW9662 1 μM, 60 minutes beforehand
Experimental: Cells of the human chondrosarcoma cell line, OUMS-27, were cultured in the same manner as that of Example 1 until they became sub-confluent, then GW9662 (Sigma Aldrich, M6191), which is an irreversible antagonist of PPARγ, was added to the cells at a final concentration of 1 μM, and the cells were cultured for 60 minutes.

H-EMC-SS cells [3] = test: Caspase 3 staining of chondrosarcoma cell line H-EMC-SS (apoptosis); assay type: cell-based, human; conditions: zaltoprofen 200 μM, troglitazone 100 μM or pioglitazone 200 μM, compared with control
Experimental: Further, in the same manner as that of Example 1, cells of the chondrosarcoma cell line were subjected to caspase 3 staining, and presence or absence of apoptosis was analyzed (FIGS. 46 and 47).

[4] = system: giant cell tumor of bone (GCTB); test: Apoptosis analysis of operational excision sample of GCTB patient administered with zaltoprofen; assay type: in vivo, human
Experimental: An operational excision sample of a person who had been administered with 3 tablets per day of the zaltoprofen tablets, Soleton Tablet 80 (generic name: zaltoprofen, 80 mg, Nippon Chemiphar) for about 28 days for pain due to the tumor, and then subjected to the operation, and an operational excision sample of giant cell tumor of bone extracted from a patient with giant cell tumor of bone not administered with zaltoprofen (case in which tumor was excised by usual surgical operation according to standard therapy) as a control were subjected to caspase 3 staining and Tunel assay, and analyzed for the presence or absence of apoptosis. The caspase 3 protein was fluorescently detected by using Anti-ACTIVE Caspase-3-Ab (Roche) ([…]) (12-4739-81) as the primary antibody, and Donkey F2 Fragment anti-Rabbit IgG PE of eBioscience as the secondary antibody. Observation was performed with a fluorescence microscope (BZ-9000) produced by Keyence (FIG. 10).

[5] = system: cultured cells of human giant cell tumor of tendon sheath (GCTT); test: Tunel assay and caspase 3 staining of GCTT cultured cells; assay type: cell-based; conditions: zaltoprofen 400 μM or troglitazone 200 μM, compared with control
Experimental: Further, the aforementioned GCTB cultured cells of the case 1 mentioned above were cultured on chamber cover slide glass, and zaltoprofen was added at different concentrations (100, and 200 μM) 24 hours afterward. Then, 8 hours and 24 hours afterward, the cells were fixed with 4% paraformaldehyde, staining with caspase 3 and Tunel assay were performed, and presence or absence of apoptosis was analyzed. In the Tunel assay, fragmented DNAs produced in the process of apoptosis were detected by the TdT-mediated dUTP nick end labeling method (TUNEL). Observation was performed with a fluorescence microscope (BZ-9000) of Keyence, and positive images for each concentration were quantitatively observed (FIGS. 2 to 5).
Further, in the same manner as that of Example 1, the cultured cells of human giant cell tumor of tendon sheath (GCTT) and the cultured cells of human pigmented villonodular synovitis (PVNS) were subjected to staining with caspase 3 and Tunel assay, and presence or absence of apoptosis was analyzed (FIGS. 18 to 25).

[6] = system: PPARγ expression in giant cell tumor of bone (GCTB); test: PPARγ staining of operational excision sample of GCTB patient administered with zaltoprofen; assay type: in vivo, human; conditions: 3 tablets per day Soleton Tablet 80 for about 28 days
Experimental: An operational excision sample of a person who had been administered with 3 tablets per day of the zaltoprofen tablets, Soleton Tablet 80 (generic name: zaltoprofen, 80 mg, Nippon Chemiphar) for about 28 days for pain due to the tumor, and then subjected to the operation, and an operational excision sample of giant cell tumor of bone excised from a patient with giant cell tumor of bone not administered with zaltoprofen (case in which tumor was excised by usual surgical operation according to standard therapy) as a control were subjected to staining of PPARγ, and expression of PPARγ was analyzed by PCR. For PCR, Hs_PPARG_1_SGQuantiTect Primer Assay (200) (QT00029841) of QIAGEN was used. Observation was performed with a fluorescence microscope (BZ-9000) of Keyence (FIG. 11).

[7] = among the 13 cases of GCTB, zaltoprofen 240 mg per day
[8] = GCTB patient, 3 tablets per day Soleton Tablet 80 for about 28 days, vs patient not administered

## CC(C(=O)O)c1ccc2c(c1)CC(=O)c1ccccc1S2 (centres unmarked) [zaltoprofen]
H-EMC-SS cells [1]
  suppression of cell proliferation (absorbance at 450 nm): cell proliferation was suppressed
Giant cell tumor of bone; GCTB case a
  response evaluation: PR (“partial response (PR)” means a state that the total of sizes of tumor has decreased by 30% or more)
Giant cell tumor of bone; GCTB case a (person, pelvis)
  shrinkage of tumor size: more than 70%
Giant cell tumor of bone; GCTB case a, up to today
  recurrence after excision by surgical operation: no recurrence has been observed
Giant cell tumor of bone; GCTB case c, proximal part of left fibula, about nine weeks, 23.3 mm before
  diameter of the giant cell tumor of bone after taking zaltoprofen: 21.0 mm
Giant cell tumor of bone; GCTB case d, distal part of right tibia, about eight weeks, 21.7 mm before
  diameter of the giant cell tumor of bone after taking zaltoprofen: 20.5 mm
Giant cell tumor of bone; GCTB case g
  change of giant cell tumor of bone: did not shrink, but it also did not grow
Giant cell tumor of bone; GCTB case g, score 80 before
  KPS score after taking zaltoprofen: 100
Giant cell tumor of bone; GCTB case j (Zometa and artery embolization used in combination)
  growth of the giant cell tumor of bone: about 6%
Giant cell tumor of bone; GCTB case j, score 50 before
  KPS score after taking zaltoprofen: 90
Giant cell tumor of bone; GCTB case k
  growth of the giant cell tumor of bone: about 10%
Giant cell tumor of bone; GCTB case k, score 80 before
  KPS score after taking zaltoprofen: 90
Giant cell tumor of bone; GCTB case l (printed case 1; left knee part), took only about a half of the prescribed dose
  increase of the size of the giant cell tumor of bone: 19.8%
Giant cell tumor of bone; GCTB case m (printed case in; person, proximal part of right tibia, multiple metastases to the lung)
  response evaluation: PD (“progressive disease (PD)” means a state that the total of sizes of tumor has increased by 20% or more, and increased by 5 mm or more in terms of absolute value, or a state that new lesion has appeared)
Giant cell tumor of bone; GCTB case m, score 90 before
  KPS score after taking zaltoprofen: 100
Giant cell tumor of bone; GCTB cases a, b, d, g, i, and j
  number of cases with hardening of bones on X-ray CT images: 6 cases
Giant cell tumor of bone; GCTB cases a, c, and d, score 80 before
  KPS score after taking zaltoprofen: 90
Giant cell tumor of bone; GCTB cases a, c, d, e, and f, no treatment except zaltoprofen
  change of giant cell tumors of bone: shrank
Giant cell tumor of bone; GCTB patients
  new metastasis during the taking of zaltoprofen: any new metastasis of giant cell tumor of bone was not observed
Giant cell tumor of bone; GCTB patients subjected to ablative operation
  recurrence during the taking of zaltoprofen after ablative operation: no recurrence of giant cell tumor of bone could be confirmed
Giant cell tumor of bone; [7]
  number of cases diagnosed partial response (PR): one
  number of cases diagnosed progressive disease (PD): one
Giant cell tumor of bone; cases of giant cell tumor of bone who took zaltoprofen
  cases in which the KPS score worsened: no case in which the KPS score worsened
Giant cell tumor of bone; recurrence of GCTB in the pelvic part (case a), after two months (FIG. 35) and four months (FIG. 36)
  MRI finding indicated by arrows: tumor necrosis region
Giant cell tumor of bone; recurrence of GCTB in the pelvic part (person; case a), 3 tablets per day, after two months and four months
  tumor size by MRI: gradual shrinkage of the tumor
[2]
  cells observed instead of the tumor: fat cell-like cells showing enhanced expression of PPARγ were observed
OUMS-27 cells
  cell proliferation-suppressing action after preincubation with GW9662: reduced by GW9662
H-EMC-SS cells [3]
  caspase 3-positive ratio: increased
[4]; GCTB patient who had taken zaltoprofen over four weeks at 240 mg per day, fat cell-like cells existed instead
  cells found in excised bone tissues at ablative operation: cells characteristic to bone giant cells did not exist in the excised bone tissues
[4]; [8]
  Tunel-positive cells in excision sample: could be confirmed
  caspase 3-positive cells in excision sample: could be confirmed
[5]
  Tunel-positive ratio: increased
  caspase 3-positive ratio: increased
[6]
  fat cell differentiation in excision sample: fat cell differentiation could be confirmed
[6]; vs patient not administered
  PPARγ-expressing cells in excision sample: PPARγ-expressing cells could be confirmed
